# Reference: ChEMBL document CHEMBL1134292, “Estrogen receptor-beta potency-selective ligands: structure-activity relationship studies of diarylpropionitriles and their acetylene and polar analogues” (J Med Chem, 2001)
# Target: Estrogen receptor beta (Homo sapiens, UniProt Q92731)
# Sequence (Q92731 whole entry): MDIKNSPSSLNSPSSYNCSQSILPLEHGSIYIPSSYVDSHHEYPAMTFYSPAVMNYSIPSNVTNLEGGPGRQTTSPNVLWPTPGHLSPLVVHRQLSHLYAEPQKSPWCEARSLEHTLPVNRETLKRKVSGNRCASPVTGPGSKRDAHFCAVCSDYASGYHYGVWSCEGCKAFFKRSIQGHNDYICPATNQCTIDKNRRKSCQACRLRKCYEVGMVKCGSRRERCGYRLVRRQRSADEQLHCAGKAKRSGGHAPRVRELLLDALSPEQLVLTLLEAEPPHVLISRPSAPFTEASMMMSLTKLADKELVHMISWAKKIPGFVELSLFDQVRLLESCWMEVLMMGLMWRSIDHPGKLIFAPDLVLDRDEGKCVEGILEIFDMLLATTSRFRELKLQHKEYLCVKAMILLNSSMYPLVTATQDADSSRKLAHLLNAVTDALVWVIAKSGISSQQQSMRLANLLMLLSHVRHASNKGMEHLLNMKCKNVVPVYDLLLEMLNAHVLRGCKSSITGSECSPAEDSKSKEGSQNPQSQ
# Description: Transcriptional potency (EC50) at Human estrogen receptor Beta
row,EC50,Compound
1,2 nM,Oc1ccc(CC(c2ccc(O)cc2)C(F)(F)F)cc1 (stereo not given)
2,0.42 nM,N#CC(c1ccc(O)cc1)C(C#N)c1ccc(O)cc1 (stereo in doubt)
3,35 nM,CC(=O)C(Cc1ccc(O)cc1)c1ccc(O)cc1 (stereo not given)
4,2.1 nM,CC#CC(Cc1ccc(O)cc1)c1ccc(O)cc1 (stereo not given)
5,8 nM,CC(C#N)(Cc1ccc(O)cc1)c1ccc(O)cc1 (stereo not given)
6,0.37 nM,Cc1cc(O)ccc1CC(C#N)c1ccc(O)cc1 (stereo not given)
7,1.4 nM,C#CC(Cc1ccc(O)cc1)c1ccc(O)cc1 (stereo not given)
8,15 nM,Oc1ccc(CC(c2ccc(O)cc2)C(F)(F)C(F)(F)F)cc1 (stereo not given)
9,220 nM,N#C/C(=C/c1ccc(O)cc1)c1ccc(O)cc1
10,140 nM,N#C/C(=C\c1ccc(O)cc1)c1ccc(O)cc1
11,0.15 nM,CC[C@H](c1ccc(O)cc1)[C@@H](C#N)c1ccc(O)cc1
12,110 nM,N#CC(c1ccc(O)cc1)C(C#N)c1cccc(O)c1 (stereo not given)
13,4.9 nM,COC(=O)C(Cc1ccc(O)cc1)c1ccc(O)cc1 (stereo not given)
14,0.41 nM,N#CC(c1ccc(O)cc1)C(C#N)c1ccc(O)cc1 (stereo in doubt; 31a(dl))
15,21 nM,N#CC(C#N)(Cc1ccc(O)cc1)c1ccc(O)cc1
16,0.14 nM,C[C@H](c1ccc(O)cc1)[C@@H](C#N)c1ccc(O)cc1
17,160 nM,O=C(C(Cc1ccc(O)cc1)c1ccc(O)cc1)C(F)(F)F (stereo not given)
18,1.7 nM,Cc1cc(O)ccc1C(C#N)Cc1ccc(O)cc1 (stereo not given)
19,3.7 nM,C#CC(c1ccc(O)cc1)C(C#C)c1ccc(O)cc1 (racemic)
20,30 nM,N#CC[C@H](Cc1ccc(O)cc1)c1ccc(O)cc1
